The source of these data is US20250197389A1, “NITROGEN-CONTAINING HETEROCYCLIC COMPOUND” (SHANGHAI SHIJIANG BIOTECHNOLOGY CO., LTD, priority 2022, published 2025).

SMILES strings stand for the structures.

In assay [1] the test system is mPTP-active Daoy cell. Nature of the assay: Inhibitory effect on mPTP-active Daoy cell (Promega CellTiter-Glo, intracellular ATP). It counts as cell-based, human. Particulars: Homo sapiens, Daoy, Daoy cell transfected with empty virus vector without PPIF shRNA.
Assay [2] deals with mPTP-inactive Daoy cell. Nature of the assay: Inhibitory effect on mPTP-inactive Daoy cell (PPIF shRNA; Promega CellTiter-Glo, intracellular ATP). It counts as cell-based, human. The settings on record: Homo sapiens, Daoy, Daoy cell transfected with virus vector carrying PPIF shRNA. The text has this:
The activity of mitochondria permeability transition pore (mPTP) was regulated by the PPIF protein. […] PPIF protein activity was restricted by the expression level of PPIF protein in cell.

For the molecule `ClC(Cl)(Cl)C1c2c(ccc3c2OCO3)C(CCCc2ccccc2)=C2c3cc4c(cc3CCN21)OCO4` (centres unmarked) [AB35428], the concentration for half-maximal inhibition (IC50) in assay [1] amounted to 12.9 µM; in assay [2] it was 5.61 µM.

Take `COc1ccc2c(c1OCCCCN)C(C)N1CCc3cc4c(cc3C1=C2)OCO4` (centres unmarked) [AB35429]: the IC50 came out at 5.28 µM in assay [1] and 2.23 µM in assay [2].

Take `COc1ccc2c(c1OCCCBr)C(C1CCCC1)N1CCc3cc4c(cc3C1=C2)OCO4` (centres unmarked) [AB35430]: the 50% inhibitory concentration (IC50) in assay [1] worked out at 5.07 µM; in assay [2] it was 2.38 µM.

For `COc1ccc2c(c1OCCCCl)C(C1CCCC1)N1CCc3cc4c(cc3C1=C2)OCO4` (centres unmarked) [AB35434], the IC50 in assay [1] turned out to be 5.21 µM; in assay [2] it was 2.48 µM.

Take `COc1ccc2c(c1OC)C(C1CCCC1)N1CCc3cc4c(cc3C1=C2CCCc1ccccc1)OCO4` (centres unmarked) [AB35436]: the IC50 in assay [1] was found to be 4.8 µM; in assay [2], 2.28 µM.

For `COc1ccc2c(c1OC/C=C(\C)CCC=C(C)C)C(C1CCCC1)N1CCc3cc4c(cc3C1=C2)OCO4` (centres unmarked) [AB35438], the half-maximal inhibitory concentration (IC50) in assay [1] was determined as 1.86 µM; in assay [2] it was 0.84 µM.

For `COc1ccc2c(c1OCCCCCCCl)C(C1CCCC1)N1CCc3cc4c(cc3C1=C2)OCO4` (centres unmarked) [AB35440], the 50% inhibitory concentration (IC50) in assay [1] is 2.36 µM; in assay [2] it was 1.14 µM.

Take `COc1ccc2c(c1OCCCCl)C(C(Cl)(Cl)Cl)N1CCc3cc4c(cc3C1=C2)OCO4` (centres unmarked) [AB35441]: the IC50 in assay [1] amounted to 2.88 µM; in assay [2], 1.27 µM.

On to `COc1ccc2c(c1OCCCN1CCCCC1)C(C)N1CCc3cc4c(cc3C1=C2)OCO4` (centres unmarked) [AB35442], for which the IC50 in assay [1] was found to be 10.7 µM; in assay [2] it was 11.4 µM.

For the molecule `COc1ccc2c(c1OCCN1CCCCC1)C(C)N1CCc3cc4c(cc3C1=C2)OCO4` (centres unmarked) [AB35443], the IC50 in assay [1] came to 30 µM; in assay [2], 31 µM.

Regarding `COc1ccc2c(c1OC)C(C(Cl)(Cl)Cl)N1CCc3cc4c(cc3C1=C2CCc1ccccc1)OCO4` (centres unmarked) [AB35444], the IC50 came to 6.85 µM in assay [1] and 3.33 µM in assay [2].

Regarding `CCCCN1CCN(c2c(OC)ccc3c2C(C(Cl)(Cl)Cl)N2CCc4cc5c(cc4C2=C3)OCO5)CC1` (centres unmarked) [AB35445], the half-maximal inhibitory concentration (IC50) in assay [1] worked out at 12.1 µM; in assay [2], 6.37 µM.

Take `COc1ccc2c(c1OCCN(C)C)C(C(Cl)(Cl)Cl)N1CCc3cc4c(cc3C1=C2)OCO4` (centres unmarked) [AB35446]: the half-inhibitory concentration (IC50) in assay [1] worked out at 16.2 µM; in assay [2], 17.6 µM.

As for `COc1ccc2c(c1OC)C(C(Cl)(Cl)Cl)N1CCc3cc4c(cc3C1=C2Cc1ccccn1)OCO4` (centres unmarked) [AB35447], the IC50 in assay [1] stood at 22.9 µM; in assay [2], 25.7 µM.

On to `COc1ccc2c(c1OC)C(C1CCCC1)N1CCc3cc4c(cc3C1=C2CCc1ccccc1)OCO4` (centres unmarked) [AB35448], for which the IC50 in assay [1] came to 3.53 µM; in assay [2] it was 1.72 µM.

Consider `COc1ccc2c(c1N1CCC(C)CC1)C(C(Cl)(Cl)Cl)N1CCc3cc4c(cc3C1=C2)OCO4` (centres unmarked) [AB35453], for which the IC50 in assay [1] amounted to 1.23 µM; in assay [2] it was 0.43 µM.

With `COc1ccc2c(c1OCCCCOc1ccccc1)C(C1CCCC1)N1CCc3cc4c(cc3C1=C2)OCO4` (centres unmarked) [AB35454], the IC50 in assay [1] stood at 2.96 µM; in assay [2] it was 1.28 µM.

As for `COc1ccc2c(c1OCCCCCCNC(=O)OC(C)(C)C)C(C1CCCC1)N1CCc3cc4c(cc3C1=C2)OCO4` (centres unmarked) [AB35455], the concentration for half-maximal inhibition (IC50) in assay [1] worked out at 3.51 µM; in assay [2], 1.47 µM.

In the case of `COc1ccc2c(c1OCCCCl)C(C)N1CCc3cc4c(cc3C1=C2)OCO4` (centres unmarked) [AB35456], the IC50 worked out at 5.77 µM in assay [1] and 2.76 µM in assay [2].

In the case of `COc1ccc2c(c1NCCc1ccccc1)C(C1CCCC1)N1CCc3cc4c(cc3C1=C2)OCO4` (centres unmarked) [AB35457], the IC50 was 3.25 µM in assay [1] and 1.52 µM in assay [2].

Take `COc1ccc2c(c1OCCCCCCBr)C(C1CCCC1)N1CCc3cc4c(cc3C1=C2)OCO4` (centres unmarked) [AB35458]: the IC50 is 3.85 µM in assay [1] and 1.84 µM in assay [2].

Consider `COc1ccc2c(c1OC(=O)CC13CC4CC(CC(C4)C1)C3)C(C1CCCC1)N1CCc3cc4c(cc3C1=C2)OCO4` (centres unmarked) [AB35459], for which the IC50 in assay [1] was found to be 12.5 µM; in assay [2] it was 6.18 µM.

On to `COc1ccc2c(c1OC)C(C1CCCC1)N1CCc3cc4c(cc3C1=C2Cc1ccc(C(C)C)cc1)OCO4` (centres unmarked) [AB35460], for which the concentration for half-maximal inhibition (IC50) was 1.96 µM in assay [1] and 0.78 µM in assay [2].

For the molecule `COc1ccc2c(c1N1CCC(NC(=O)OC(C)(C)C)CC1)C(C(Cl)(Cl)Cl)N1CCc3cc4c(cc3C1=C2)OCO4` (centres unmarked) [AB35465], the IC50 in assay [1] came to 5.43 µM; in assay [2] it was 2.68 µM.

As to `COc1ccc2c(c1OCCCBr)C(C(Cl)(Cl)Cl)N1CCc3cc4c(cc3C1=C2)OCO4` (centres unmarked) [AB35466], the IC50 worked out at 2.21 µM in assay [1] and 0.91 µM in assay [2].

For the molecule `C1=C2c3cc4c(cc3CCN2C(C2CCCC2)c2cc3c(cc21)OCO3)OCO4` (centres unmarked) [AB35467], the results for the IC50 in assay [1] and in assay [2] were 16.1 µM and 8.21 µM, respectively.

Regarding `COc1ccc2c(c1OC)C(C)N1CCc3cc4c(cc3C1=C2CCCCc1ccccc1)OCO4` (centres unmarked) [AB35468], the IC50 was 2.29 µM in assay [1] and 1.05 µM in assay [2].

On to `COc1ccc2c(c1OC)C(C(Cl)(Cl)Cl)N1CCc3cc4c(cc3C1=C2CCCCc1ccccc1)OCO4` (centres unmarked) [AB35469], for which the 50% inhibitory concentration (IC50) in assay [1] stood at 2.41 µM; in assay [2], 1.11 µM.
